# Where two headings read alike, the source gives them in different places.
# Key:
# Assay type in all cases: cell-based
# [1] = test system: Aspergillus fumigatus + Candida albicans co-culture; experiment: Broth microdilution MIC assay, co-culture of spores 1:1
# Method: Broth Microdilution Minimal Inhibitory Concentration (MIC) assays were performed to obtain the MIC values for Itraconazole and Ketoconazole with an antibiotic (Vancomycin or Tobramycin or Amikacin) against the two fungal strains.
# The strains were maintained as a frozen glycerol stocks at −80° C. The fungal strains were prepared by thawing a glycerol stock, streaking and growing onto Sabouraud's Dextrose Agar (SDA) plates, overnight at 35±2° C. in aerobic conditions and used for the assay.
# The completely synthetic medium RPMI-1640 (with glutamine, without bicarbonate, and with phenol red as a pH indicator) was buffered with 0.165 mol/L MOPS (3-[N-morpholino] propanesulfonic acid) buffer was used as the growth medium for the fungal strains. Overnight cultures of the fungal strains were grown on Difco™ Sabouraud's Dextrose Agar (SDA) plates at 35° C. To induce conidium and sporangiospore formation, the culture plates were transferred to incubator and grown for 5-7 days 30° C. or until good sporulation was obtained. Approximately, 10 mL of 0.85% saline containing 0.01% of Tween 80 was used to poured on to the agar plate containing conidia or sporangiospores and hyphal fragments. The suspension containing conidia or sporangiospores and hyphal fragments was aspirated and transferred to a sterile tube. This mixture was filtered to separate the spores from the vegetative cells of the fungi. The supernatant containing only fungal spores was used for all the assays. Fungal spore inoculum was prepared in RPMI-1640 (with glutamine, without bicarbonate, and with phenol red as a pH indicator) was buffered with 0.165 mol/L MOPS (3-[N-morpholino] propanesulfonic acid) buffer to a final density of 10^6 CFU/mL using a hemocytometer.
# Each MIC assay included 11 2-fold serial dilutions of the antifungal agents. Test concentrations for the test articles were tested at the following concentrations: 64 μg/mL, 32 μg/mL, 16 μg/mL, 8 μg/mL, 4 μg/mL, 2 μg/mL, 1 μg/mL, 0.5 μg/mL, 0.25 μg/mL, 0.125 μg/mL, and 0.0625 μg/mL. Broth microdilution assays were performed according to the procedures detailed in CLSI document M38-A2 (CLSI, 2008). Briefly, 2× stock solutions of test articles were prepared at 128 μg/mL. A two-fold serial dilution of the stock solution were performed. Diluted stock solutions of the fungal spores were adjusted (to be equivalent to 10^6 CFU/mL). 1× final concentration of the antifungals was obtained when they were combined with the fungal spore broth in the microtiter plate. Plates were incubated for 3-5 days at 35±2° C. in an ambient air incubator. MIC values recorded are the minimum concentration of the test articles that inhibits growth as observed by unaided eye. The MIC values was expressed in μg/mL. The assay was carried out in duplicates.
# [2] = test system: Candida albicans; experiment: Culture sensitivity, Patient 7 fungal isolate; details: Patient 7 culture
# Text: (§1) The patient underwent the standard workup for CRS, sleep disorder, and nasal obstruction, plus our diagnostic skin test and sinus CT scan.
# [3] = test system: S. aureus, a gram negative bacteria; experiment: Culture sensitivity, Patient 7 bacterial isolate; details: Patient 7 culture
# Text: as §1
# [4] = A. fumigatus + C. albicans co-culture, repeated MIC study (Table 4), agent alone, read-out: MIC
"MIC ([1]; A. fumigatus + C. albicans co-culture 1:1, first study (Table 3), read-out: MIC) [µg/mL]","MIC ([1]; A. fumigatus + C. albicans co-culture, repeated MIC study (Table 4), agent alone, listed as Itraconazone) [µg/mL]","MIC [1, 4] [µg/mL]",Compound,Sensitivity of cultured Candida albicans [2],Sensitivity of cultured bacteria [3]
0.5,1,1,CCC(C)n1ncn(-c2ccc(N3CCN(c4ccc(OCC5COC(Cn6cncn6)(c6ccc(Cl)cc6Cl)O5)cc4)CC3)cc2)c1=O (stereo not drawn) [Itraconazole],–,–
–,–,8,CC(=O)N1CCN(c2ccc(OCC3COC(Cn4ccnc4)(c4ccc(Cl)cc4Cl)O3)cc2)CC1 (stereo not drawn) [Ketoconazole],sensitive,–
–,–,–,NC[C@H]1O[C@H](O[C@H]2[C@H](O)[C@@H](O[C@H]3O[C@H](CO)[C@@H](O)[C@H](N)[C@H]3O)[C@H](N)C[C@@H]2N)[C@H](N)C[C@@H]1O [tobramycin],–,sensitive

# Reference: US20180064710A1, “ANTIFUNGAL TREATMENT OF PSORIASIS” (Gerbe Labs Inc., priority 2016, published 2018)
